Drawing on patent US12492197B2, “3,5-disubstituted pyrazole compounds as kinase inhibitors and uses thereof” (IMPACT THERAPEUTICS (SHANGHAI), INC, priority 2019, dated 2025), this text covers IC50 for eleven compounds.

Experiment [1] deals with human breast cancer cell HCC1806. The experiment can be described thus: Proliferation of HCC1806 cells, MTT assay. The class given is cell-based. As to conditions: HCC1806, 72 h, 3 days treatment, read-out: IC50 (inhibition of proliferation of HCC1806). The method, then: Newly revived HCC1806 cells (purchased from Guangzhou Genio) were cultured and passaged for at least three generations before use. Cells were used at 90% confluency for experiments. Cells were digested with trypsinase and centrifuged at 800 rpm for 5 minutes. The cell pellets were resuspended in fresh RPMI1640 medium and cells were counted. Cells were seeded on 96-well cell culture plates at 2000 cells/well and incubated overnight at 37° C., 5% CO2. The stock solutions of the test substances (including the test compounds and the reference compound) were serially diluted to 8 concentrations with DMSO at a ratio of 1:3. Five μL of each of the serially diluted solutions were added to 120 μL of medium (diluted by 25 times) and mixed by shaking. […] The cell culture plates were returned to incubator at 37° C., 5% CO2 for 3 days. At the end of treatment the cell viability was determined by MTT colorimetric assay. Cell culture medium in each well was replaced by 100 μL/well of serum-free fresh medium containing MTT (0.5 mg/mL), and the culture was continued for additional 4 hours.
(§1) Data was analyzed by GraphPad Prism 6.0. The inhibitory effects of compounds on cell proliferation were plotted based on cell viability vs. the logarithm of compound concentration. Cell viability %=(ODcompound−ODbackground)/(ODDMSO−ODbackground)×100.
For orientation: Tetrazolium dyes change colour on reduction, which living cells bring about.

In experiment [2] the test system is human colon cancer cell LoVo. Description: Proliferation of LoVo cells, MTT assay. The class given is cell-based. As to conditions: 96 h, 4 days treatment, read-out: IC50 (inhibition of proliferation of LoVo). As for the experimental part: Newly revived LoVo cells (purchased from Shanghai Cell Institute) were cultured and passaged for at least three generations before use. Cells were used at 90% confluence for experiment. Cells were digested with trypsinase and centrifuged at 800 rpm for 5 minutes and the supernatant was discarded. The cell pellets were resuspended in fresh RPMI1640 medium and counted. Cells were seeded on 96-well cell culture plates at 5000 cells/well and incubated overnight at 37° C., 5% CO2. The stock solutions of the test substances (including the test compounds and the reference compound) were serially diluted to 8 concentrations with DMSO at a ratio of 1:3. 5 μL of each series diluted solutions was added to 120 μL of medium (diluted by 25 times) and mixed by shaking. […] The cell culture plates were returned to incubator at 37° C. and 5% CO2 for 4 days. At the end of treatment, the cell viability was determined by MTT colorimetric assay. Cell culture medium in each well was replaced by 100 μL/well of serum-free DMEM medium containing MTT (0.5 mg/mL), and the culture was continued for additional 4 hours. Medium was then discarded and 100 μL/well of DMSO was added.
as §1

The structures appear in SMILES notation.

Turning to `COc1cc(F)cc(OC[C@H]2CNCCS2)c1-c1cc(Nc2cnc(C#N)cn2)n[nH]1` [Example 77-B, (R)-5-((5-(4-fluoro-2-methoxy-6-(thiomorpholin-2-ylmethoxy)phenyl)-1H-pyrazol-3-yl)amino)pyrazine-2-carbonitrile], the results for the IC50 in experiment [1] and in experiment [2] were 16.7 nM and 17.3 nM, respectively.
The corresponding values for `COc1cccc(OC[C@H]2CCCNC2)c1-c1cc(Nc2ncc(C#N)nc2C)n[nH]1` [Example 29, (S)-5-((5-(2-methoxy-6-(piperidin-3-ylmethoxy)phenyl)-1H-pyrazol-3-yl)amino)-6-methylpyrazine-2-carbonitrile] are over 1000 nM and over 1000 nM.
In the same order, the values of `N#Cc1cnc(Nc2cc(-c3c(F)cc(Br)cc3OC[C@@H]3CNCCO3)[nH]n2)cn1` [Example 60, (S)-5-((5-(4-bromo-2-fluoro-6-(morpholin-2-ylmethoxy)phenyl)-1H-pyrazol-3-yl)amino)pyrazine-2-carbonitrile] are over 1000 nM and 554 nM.
In the same order, the values of `Cc1cc(F)c(-c2cc(Nc3cnc(C#N)cn3)n[nH]2)c(OC[C@@H]2CNCCO2)c1` [Example 64, (S)-5-((5-(2-fluoro-4-methyl-6-(morpholin-2-ylmethoxy)phenyl)-1H-pyrazol-3-yl)amino)pyrazine-2-carbonitrile] are 676 nM and 323 nM.
`COc1cc(F)cc(OCC2CNCCC2(C)C)c1-c1cc(Nc2cnc(C#N)cn2)n[nH]1` (stereo not shown) [Example 50, 5-((5-(2-((4,4-dimethylpiperidin-3-yl)methoxy)-4-fluoro-6-methoxyphenyl)-1H-pyrazol-3-yl)amino)pyrazine-2-carbonitrile]: the IC50 was 26.8 nM in experiment [1] and 35.2 nM in experiment [2].
On to `COc1cc(F)cc(OC[C@@H]2CNCCS2)c1-c1cc(Nc2cnc(C#N)cn2)n[nH]1` [Example 77-A, (S)-5-((5-(4-fluoro-2-methoxy-6-(thiomorpholin-2-ylmethoxy)phenyl)-1H-pyrazol-3-yl)amino)pyrazine-2-carbonitrile], for which the IC50 is 3.6 nM in experiment [1] and 3.1 nM in experiment [2].
For the compound `N#Cc1cnc(Nc2cc(-c3c(F)cc(Cl)cc3OC[C@@H]3CNCCO3)[nH]n2)cn1` [Example 58, (S)-5-((5-(4-chloro-2-fluoro-6-(morpholin-2-ylmethoxy)phenyl)-1H-pyrazol-3-yl)amino)pyrazine-2-carbonitrile], the IC50 in experiment [1] was over 1000 nM; in experiment [2] it was 913 nM.
The corresponding values for `COc1cc(C)cc(OCC2CNC2)c1-c1cc(Nc2cnc(C#N)cn2)n[nH]1` [Example 72, 5-((5-(2-(azetidin-3-ylmethoxy)-6-methoxy-4-methylphenyl)-1H-pyrazol-3-yl)amino)pyrazine-2-carbonitrile] are 5.7 nM and 6 nM.
The corresponding values for `CCc1cc(OC)c(-c2cc(Nc3cnc(C#N)cn3)n[nH]2)c(OC[C@H]2CCCNC2)c1` [Example 75, (S)-5-((5-(4-ethyl-2-methoxy-6-(piperidin-3-ylmethoxy)phenyl)-1H-pyrazol-3-yl)amino)pyrazine-2-carbonitrile] are 3.1 nM and 3.2 nM.
In the same order, the values of `COc1cccc(OC[C@H]2CCCNC2)c1-c1[nH]nc(Nc2cnc(C#N)cn2)c1C` [Example 51, (S)-5-((5-(2-methoxy-6-(piperidin-3-ylmethoxy)phenyl)-4-methyl-1H-pyrazol-3-yl)amino)pyrazine-2-carbonitrile] are over 1000 nM and over 1000 nM.
For the compound `Cc1cc(F)c(-c2cc(Nc3cnc(C#N)cn3)n[nH]2)c(OCC2CNC2)c1` [Example 61, 5-((5-(2-(azetidin-3-ylmethoxy)-6-fluoro-4-methylphenyl)-1H-pyrazol-3-yl)amino)pyrazine-2-carbonitrile], the IC50 is 111 nM in experiment [1] and 97 nM in experiment [2].
